The record followed here is patent US20220175974A1, “TARGETING COMPOUNDS FOR CANCERS SELECTED FROM ESOPHAGUS, PHARYNX AND LARYNX, LUNG, BRAIN, AND INTESTINES” (HQ MEDICAL NETHERLANDS B.V., priority 2019, published 2022).

SMILES strings stand for the structures.

Data set [1] relates to intracellular proteins, including tubulin and actin. Put plainly: binding of cyanine targeting molecules to intracellular proteins. From the text: (§1) The present targeting molecule is very selective and very specific in binding to necrotic cells. […] For the present invention four specific cyanines are selected, namely HQ4, HQ5, CW-800 and ZW-800. These molecules are found to have a high affinity towards the intracellular proteins, including tubulin and actin. […] As a result very low concentrations c.q. amounts of the present system may be used to provide advantageous effects thereof. It is noted that apoptosis specific probes, in contrast to necrosis specific probes will also target healthy tissue as apoptosis is involved in normal tissue turnover. The present cyanine is attached to a second entity, namely a chelator, wherein the chelator is selected from DOTA and NOTA (DOTA: 1,4,7,10-Tetraazacyclododecane-1,4,7,10-tetraacetic acid and NOTA: 1,4,7-triazacyclononane-N,N′,N″-triacetic acid). Attached to the chelator is attached a third entity, namely a radionuclide selected from Cu, In, Gd, Ga, Lu, Y, I, and Zr. The present system is found to be effective as a medicament, also referred to as drug, for cancers selected from esophagus, pharynx and larynx, lung, brain, and intestines. These cancers are considered to relate to and being associated with the Central Nervous system, the respiratory tract, the gastro-intestinal tract, […], and head-neck region, respectively. […]

A short description of data set [2]: clearance of the cyanines in the human body. The class given is in vivo.
Description: as §1

Regarding `CC1(C)C(/C=C/C2=C(Oc3ccc(S(=O)(=O)O)cc3)C(=C/C=C3/N(CCCCS(=O)(=O)O)c4ccc(S(=O)(=O)[O-])cc4C3(C)C)/CCC2)=[N+](CCCCCC(=O)O)c2ccc(S(=O)(=O)O)cc21` [CW-800], the “affinity towards the intracellular proteins” value in data set [1] is listed as “high affinity”. Further, the “clearance in the human body” value in data set [2] was “cleared in the human body specifically well”.
